Results from paper PMC11369887 (RSC Advances, 2024).
Read-outs that look alike come from different tables or passages of the source.

Legend:
[1] = tested on: human breast cancer (MCF-7) cell line
Procedure: (§2) The newly synthesized compounds were evaluated for their in vitro growth inhibition of three human tumor cell lines representing different tumor types, namely, breast adenocarcinoma (MCF-7), liver hepatocellular carcinoma (Hep3B) and leukemia-SR. […] The breast tumor cell line (MCF-7), hepatic tumor cell line (Hep3B) and leukemia-SR cell line were obtained from American Type Culture Collection. The cells were cultured using Dulbecco's modified Eagle's medium (DMEM) (Invitrogen/Life Technologies) supplemented with 10% fetal bovine serum (FBS) (Hyclone), 10 μg mL^−1 of insulin (Sigma), and 1% penicillin–streptomycin. […] For 24 hours before to the MTT experiment, plate cells (densities of 1.2–1.8 × 10 000 cells per well) were layered in a 96-well plate containing 100 μL of the tested chemical per well and 100 μL of full growth media.
(§3) The culture medium was transferred to a centrifuge tube. […] Then 2.0 to 3.0 mL of Trypsin EDTA solution was added to the flask, and the cells were observed using an inverted microscope until the cell layer became dispersed (usually within 5–15 min). After that, 6.0 to 8.0 mL of complete growth medium was added and the cells were aspirated by gently pipetting. The cell suspension was transferred to the centrifuge tube with the medium and cells from step 1 and centrifuged at approximately 125 g for 5–10 min. The supernatant was discarded. The cell pellet was re-suspended in a fresh growth medium. Appropriate aliquots of the cell suspension were added to new culture vessels.
(§4) For the best results, the cells in the log phase of growth should be employed and the final cell number should not exceed 10^6 cells per cm^2. Each test should include a blank containing a complete medium without cells. Cultures from the incubator were transferred into a laminar flow hood or other sterile work area. […] Reconstituted MTT was added in an amount equal to 10% of the culture medium volume. Cultures were returned to the incubator for 2–4 h depending on the cell type and maximum cell density. An incubation period of 2 h is generally adequate but may be lengthened for low cell densities or cells with lower metabolic activity. The incubation times should be consistent when making comparisons. […] Occasionally, especially in dense cultures, pipetting up and down may be required to completely dissolve the MTT formazan crystals. The absorbance was spectrophotometrically measured at a wavelength of 570 nm. The background absorbance of multiwell plates was measured at 690 nm and subtracted from the 450 nm measurement. Tests performed in multiwell plates might be read using an appropriate type of plate reader or the contents of individual wells might be transferred to appropriate size cuvettes for spectrophotometric measurement.

[2] = tested on: leukemia (L-SR) cell line
Procedure: as §2, §3, §4

[3] = tested on: human liver cancer (Hep3B) cell line
Procedure: as §2, §3, §4

[4] = tested on: human liver cancer (Hep3B) cell line; assay: MTT cytotoxicity assay, Hep3B; conditions: Homo sapiens, Hep3B
Procedure: as §2, §3, §4

[5] = target: T1, human DNA topoisomerase II beta (Topo2β) (Homo sapiens, UniProt Q02880); assay: Topo2β polymerase inhibition assay (ELISA), Hep3B; format: cell-based; parameters: concentration or dose not given beside the values; conditions: against Hep3B cell line
T1 sequence (Q02880 whole entry): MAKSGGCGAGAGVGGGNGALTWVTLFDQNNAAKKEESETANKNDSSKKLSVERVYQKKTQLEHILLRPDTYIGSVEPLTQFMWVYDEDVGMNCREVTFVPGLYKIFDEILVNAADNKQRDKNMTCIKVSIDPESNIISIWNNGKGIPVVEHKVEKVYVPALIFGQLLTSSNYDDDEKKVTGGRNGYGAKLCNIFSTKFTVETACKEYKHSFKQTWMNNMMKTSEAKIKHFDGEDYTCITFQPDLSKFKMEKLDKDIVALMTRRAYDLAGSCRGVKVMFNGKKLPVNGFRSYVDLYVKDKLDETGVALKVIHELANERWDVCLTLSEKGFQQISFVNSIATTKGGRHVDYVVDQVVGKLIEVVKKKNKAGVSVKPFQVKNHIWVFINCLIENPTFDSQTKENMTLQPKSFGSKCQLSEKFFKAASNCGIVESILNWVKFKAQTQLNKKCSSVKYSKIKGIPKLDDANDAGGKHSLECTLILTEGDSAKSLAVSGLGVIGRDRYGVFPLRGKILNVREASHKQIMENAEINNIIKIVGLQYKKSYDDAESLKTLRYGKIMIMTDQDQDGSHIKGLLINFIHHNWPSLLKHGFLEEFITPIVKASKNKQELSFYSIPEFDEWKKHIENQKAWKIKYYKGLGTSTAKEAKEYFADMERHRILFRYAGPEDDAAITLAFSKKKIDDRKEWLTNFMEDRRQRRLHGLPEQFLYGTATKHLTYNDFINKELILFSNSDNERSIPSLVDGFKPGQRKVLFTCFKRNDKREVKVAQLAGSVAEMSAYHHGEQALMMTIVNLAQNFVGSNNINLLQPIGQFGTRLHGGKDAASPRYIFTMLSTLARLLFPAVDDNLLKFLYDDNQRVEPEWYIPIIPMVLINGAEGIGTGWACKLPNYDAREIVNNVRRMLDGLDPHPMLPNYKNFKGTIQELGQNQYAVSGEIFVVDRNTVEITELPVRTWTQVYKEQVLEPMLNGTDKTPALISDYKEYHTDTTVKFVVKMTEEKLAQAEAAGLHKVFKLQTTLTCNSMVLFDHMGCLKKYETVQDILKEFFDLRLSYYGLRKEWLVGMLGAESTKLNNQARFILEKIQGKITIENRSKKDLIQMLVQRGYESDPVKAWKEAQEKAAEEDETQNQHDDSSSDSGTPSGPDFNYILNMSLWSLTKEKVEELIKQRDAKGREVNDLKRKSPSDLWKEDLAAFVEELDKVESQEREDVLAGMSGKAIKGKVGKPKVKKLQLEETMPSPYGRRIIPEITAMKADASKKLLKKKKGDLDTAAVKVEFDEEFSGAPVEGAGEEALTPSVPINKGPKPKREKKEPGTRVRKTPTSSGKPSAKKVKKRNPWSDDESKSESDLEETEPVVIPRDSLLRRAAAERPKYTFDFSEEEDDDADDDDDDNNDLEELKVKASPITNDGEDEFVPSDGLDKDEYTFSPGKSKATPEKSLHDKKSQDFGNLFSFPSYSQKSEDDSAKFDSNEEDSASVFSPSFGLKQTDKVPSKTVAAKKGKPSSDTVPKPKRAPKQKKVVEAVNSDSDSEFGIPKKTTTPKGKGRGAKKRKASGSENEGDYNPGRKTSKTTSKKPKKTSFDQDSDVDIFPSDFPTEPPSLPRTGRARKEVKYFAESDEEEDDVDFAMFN
Procedure: (§1) This assay was employed to predict the inhibitory effects of novel compounds on Topo2β. […] The melting points were determined using a Stuart apparatus, and the values given are uncorrected. IR spectra were recorded using a Shimadzu IR 4000s spectrophotometer (KBr, cm^−1) at the College of Pharmaceutical Sciences and Drug Manufacturing, Misr University for Science and Technology, Egypt. ^1H NMR spectra were recorded using a Bruker 400 MHz (Bruker Corp., Billerica, MA, USA) spectrophotometer, Faculty of Pharmacy, Cairo University, Cairo, Egypt and the Centre of Drug Discovery Research & Development, Faculty of Pharmacy, Ain shams University, and a Jeol 500 MHz spectrophotometer at the National Research Center. Chemical shifts were recorded in ppm on a δ scale, coupling constants (J) were given in Hz and peak multiplicities are designed as follows: s, singlet; d, doublet; t, triplet; m, multiplet. ^13C NMR spectra were recorded using a Bruker 100 MHz spectrophotometer, Faculty of Pharmacy, Cairo University and the Centre of Drug Discovery Research & Development, Faculty of Pharmacy, Ain shams University, and a Jeol 500 MHz spectrophotometer at the National Research Center. Chemical shifts were recorded in ppm on a δ scale. Microanalyses for C, H, and N were carried out at the Regional Center for Mycology and Biotechnology, Faculty of Pharmacy, Al-Azhar University. C, H, and N analysis values were accepted within the range of ± 0.4 of the calculated percentages. […] The used eluting system was methanol : hexane with a ratio of 9.5/0.5 respectively. Scientific microwave MAS-II was used under 300 W microwave irradiation, operating at 80 °C. The evaluation of the cytotoxic activity was performed at VACSERA, Giza, Egypt, using MCF-7, Hep3B and leukemia SR cell lines. Enzyme assay, cell cycle analysis, apoptosis and caspase-3 assay were carried out at VACSERA, Giza, Egypt using an SEB870Hu 96 Tests Enzyme-linked Immunosorbent Assay Kit for Topoisomerase II Beta.
This assay employs a quantitative sandwich enzyme immunoassay technique. […] Antibody specific for Topo2β was pre-coated onto a microplate. Standards and samples were pipetted into the wells and any Topo2β present was bound by the immobilized antibody. After removing any unbound substances, a biotin-conjugated antibody specific for Topo2β was added to the wells. After washing, avidin-conjugated Horseradish Peroxidase (HP) was added to the wells. Following washing to remove any unbound avidin–enzyme reagent, a substrate solution was added to the wells and color develops in proportion to the amount of Topo2β bound in the initial step. The color development was stopped, and the intensity of the color was measured. […] The sensitivity of this assay or lower limit of detection (LLD) is defined as the lowest protein concentration that could be differentiated from zero. The mean OD value of 20 replicates of the zero standard was determined and added to their three standard deviations.[64]

[6] = in vitro; conditions: human, THLE2 normal liver cells
Procedure: (§5) The following normal cell lines were selected: normal breast MCF-10a, normal liver THLE2 and normal lymphocyte PCS-800-011. […] Moreover, the toxic effect of representative target compounds was evaluated on normal breast (MCF10a), normal liver (THLE2) and normal lymphocyte (PCS-800-011) cell lines using an MTT assay. […] The cells were cultured using Dulbecco's modified Eagle's medium (DMEM) (Invitrogen/Life Technologies) supplemented with 10% fetal bovine serum (FBS) (Hyclone), 10 μg mL^−1 of insulin (Sigma), and 1% penicillin–streptomycin. All chemicals and reagents were purchased from Sigma-Aldrich or Invitrogen. For 24 hours before to the MTT experiment, plate cells (densities of 1.2–1.8 × 10 000 cells per well) were layered in a 96-well plate containing 100 μL of the tested chemical per well and 100 μL of full growth media.
as §3, §4

[7] = tested on: human breast cancer (MCF-7) cell line; assay: MTT cytotoxicity assay, MCF-7; conditions: Homo sapiens, MCF7, 48 h, read-out: Cytotoxicity IC50 MCF-7
Procedure: as §2, §3, §4

[8] = tested on: leukemia (L-SR) cell line; assay: MTT cytotoxicity assay, L-SR; conditions: Homo sapiens, 48 h, read-out: Cytotoxicity IC50 L-SR
Procedure: as §2, §3, §4

[9] = in vitro; conditions: human, PCS-800-011 normal lymphocyte cells
Procedure: as §5, §3, §4

[10] = tested on: Hep3B cells; assay: Annexin V-FITC/propidium iodide apoptosis assay; conditions: for Total %: apoptosis and necrosis total; for Total % / Early apoptosis % / Late apoptosis % / Necrosis %: treated at IC50; for percentage of apoptotic cells (summation of Q2 and Q3): early plus late apoptosis
Procedure: An Annexin-V-FITC apoptosis assay was used to determine apoptosis and necrosis. The cells were incubated with Annexin-V-FITC, centrifuged and then resuspended in 500 μL of 1× binding buffer. Then 5 μL of Annexin-V-FITC and 5 μL of propidium iodide (PI) were added, and the cells were then trypsinized and washed once with serum-containing media before incubation with Annexin-V-FITC at room temperature for 5 min in the dark. A FACSort Calibur flow cytometer (Becton Dickinson Biosciences) was used to analyze apoptosis.[56,57]

[11] = tested on: Hep3B cells; assay: Cell cycle analysis by propidium iodide staining, flow cytometry; format: cell-based, human; conditions: Hep3B cells treated at IC50
Procedure: An apoptosis study was performed at the Cell Culture Unit, VACSERA, Cairo, Egypt. […] The treated cells were washed twice with ice-cold phosphate-buffered saline (PBS), centrifuged and then fixed in ice-cold 70% (v/v) ethanol to prevent clustering of cells during fixation. […] Then 3 mL of PBS was added, and the cells were centrifuged to remove the supernatant. The cells were analyzed by flow cytometry using a FACSort Calibur (Becton Dickinson Biosciences, CA, USA). Finally, the Cell Quest software was used to determine the cell cycle distribution.[65,66]

[12] = tested on: active caspase-3; assay: Caspase-3 enzyme assay (ELISA) in Hep3B; format: cell-based, human; conditions: Hep3B cells
Procedure: Caspases are crucial mediators of apoptosis. Among them, caspase-3 is considered as a key effector caspase in inducing cell apoptosis and serves as a marker of programmed cell death.[58] Compounds 3c and 5 were tested for their effect on caspase-3 levels in the most sensitive liver cancer cell line Hep3B.
Caspase-3 is one of the crucial mediators of programmed cell death (apoptosis) as it is essential for the formation of apoptotic bodies.[67–70] Active caspase-3 level was measured in pg ml^−1 protein using an Invitrogen ELISA kit (catalog KHO1091). The following procedures were performed. First, 100 μL of the standard diluent buffer was added to the zero standard wells. Then, 100 μL of standards and controls or diluted samples were added to the appropriate microtitre wells. Cover wells were covered and incubated for 2 h at room temperature. The solution was decanted from wells. Then 100 μL of active caspase-3 detection antibody solution was pipetted into each well. The plate was covered and incubated for 1 h at room temperature. After that, 100 μL of Anti-Rabbit IgG HP working solution was added to each well. The wells were covered with a plate cover and incubated for 30 min at room temperature. Then, 100 μL of stabilized chromogen was added to each well. The liquid in the wells will begin to turn blue, and the wells were incubated for 30 min at room temperature. A stop solution was added to each well. The solution in the wells should change from blue to yellow. The plate was read within 2 h after adding the stop solution. Curve fitting software was used to generate the standard curve.

[13] = in vitro; conditions: human, MCF-10a normal breast cells
Procedure: as §5, §3
For the best results, the cells in the log phase of growth should be employed and the final cell number should not exceed 10^6 cells per cm^2. […] The absorbance was spectrophotometrically measured at a wavelength of 570 nm. The background absorbance of multiwell plates was measured at 690 nm and subtracted from the 450 nm measurement. Tests performed in multiwell plates might be read using an appropriate type of plate reader or the contents of individual wells might be transferred to appropriate size cuvettes for spectrophotometric measurement.

[14] = target: T1, human DNA topoisomerase II beta (Topo2β); assay: Topo2β polymerase inhibition assay (ELISA), MCF-7; format: cell-based; conditions: against MCF-7 cell line
Procedure: as §1, with “Enzyme assay, cell cycle analysis, apoptosis and caspase-3 assay were carried out at VACSERA, Giza, Egypt using an SEB870Hu 96 Tests Enzyme-linked Immunosorbent Assay Kit for Topoisomerase II Beta.” left out
This assay employs a quantitative sandwich enzyme immunoassay technique. […] The color development was stopped, and the intensity of the color was measured. […] The mean OD value of 20 replicates of the zero standard was determined and added to their three standard deviations.[64]

[15] = target: T1, human DNA topoisomerase II beta (Topo2β); assay: Topo2β polymerase inhibition assay (ELISA), L-SR; format: cell-based; parameters: endogenous in cells; host or cells: MCF-7 (A4), Hep3B (A5), L-SR (A6) human cancer cell lines; conditions: against L-SR cell line
Procedure: as §1
This assay employs a quantitative sandwich enzyme immunoassay technique. […] Antibody specific for Topo2β was pre-coated onto a microplate. Standards and samples were pipetted into the wells and any Topo2β present was bound by the immobilized antibody. After removing any unbound substances, a biotin-conjugated antibody specific for Topo2β was added to the wells. After washing, avidin-conjugated Horseradish Peroxidase (HP) was added to the wells. […] The color development was stopped, and the intensity of the color was measured. […] The mean OD value of 20 replicates of the zero standard was determined and added to their three standard deviations.[64]

[16] = 48 h, read-out: Cytotoxicity IC50 Hep3B

Compound	IC50 [4, 16]	Topo2β% inhibition [5]	IC50 at 48 h [6]	IC50 [7]	IC50 [8]	IC50 at 48 h [9]	IC50 [4]	Total % [10]	percentage of apoptotic cells (summation of Q2 and Q3) [10]	Early apoptosis % [10]	Late apoptosis % [10]	Necrosis % [10]	DNA content %G0–G1 [11]	DNA content %G2/M [11]	DNA content %S [11]	Caspase-3 Conc. [12]	IC50 at 48 h [13]	Topo2β% inhibition [14]	Topo2β% inhibition [15]	further results
9-Fluoro-3-methyl-6-((3-methyl-5-oxo-4,5-dihydro-1H-pyrazol-1-yl)carbonyl)-10-(4-methylpiperazin-1-yl)-2,3-dihydro-7H-[1,4]oxazino[2,3,4-ij]quinolin-7-one [Compound 6]	–	–	–	–	–	–	–	–	–	–	–	–	–	–	–	–	–	–	–	IC50 [1]: 40.6 ± 1.88 µM; IC50 [2]: 28.9 ± 1.75 µM; IC50 [3]: 13.1 ± 0.61 µM
CC1COc2c(N3CCN(C)CC3)c(F)cc3c(=O)c(C(=O)N4NC(=O)CC4=N)cn1c23 (centres unmarked) [Compound 7, 9-Fluoro-6-((5-imino-3-oxopyrazolidine-1-yl)carbonyl)-3-methyl-10-(4-methylpiperazin-1-yl)-2,3-dihydro-7H-[1,4]oxazino[2,3,4-ij]quinolin-7-one]	6.99 ± 0.32 µM	71.92%	68.5 ± 3.86 µM	4.37 ± 0.2 µM	12.1 ± 0.73 µM	32.1 ± 1.68 µM	–	–	–	–	–	–	–	–	–	–	–	–	–	melting point: 101 to 103 °C
COc1ccc(C=NNC(=O)c2cn3c4c(c(N5CCN(C)CC5)c(F)cc4c2=O)OCC3C)cc1 (centres unmarked) [Compound 3c, 9-Fluoro-3-methyl-10-(4-methylpiperazin-1-yl)-N′-(4-methoxybenzylidene)-7-oxo-2,3-dihydro-7H-[1,4]oxazino[2,3,4-ij]quinoline-6-carbohydrazide]	0.43 ± 0.01 µM	81.33%	20 ± 0.76 µM	40.6 ± 3.17 µM	22.4 ± 1.34 µM	–	0.43 µM	32.91%	25.87%	11.54%	14.33%	7.04%	43.53%	18.91%	37.56%	407.3 ± 7.55 pg/mL	–	–	–	–
COc1cc([C@@H]2c3cc4c(cc3[C@@H](O[C@@H]3O[C@@H]5CO[C@@H](C)O[C@H]5[C@H](O)[C@H]3O)[C@H]3COC(=O)[C@H]23)OCO4)cc(OC)c1O [Etoposide, reference compound]	21.9 ± 0.72 µM	73.22%	35.2 ± 2.19 µM	16.3 ± 0.72 µM	3.38 ± 0.13 µM	37.1 ± 1.79 µM	21.9 µM	27.09%	–	3.41%	9.37%	14.31%	36.14%	37.62%	26.24%	460 ± 11.3 pg/mL	23.9 ± 1.55 µM	63.18%	69.85%	–
C[C@H]1COc2c(N3CCN(C)CC3)c(F)cc3c(=O)c(C(=O)O)cn1c23 [Levofloxacin, reference compound]	8.94 ± 0.29 µM	73.59%	29.9 ± 1.52 µM	2.79 ± 0.16 µM	7.38 ± 0.31 µM	20.2 ± 0.85 µM	8.94 µM	34.62%	23.60%	0.95%	22.65%	11.02%	29.66%	39.87%	30.47%	391.7 ± 5.86 pg/mL	22.2 ± 1.41 µM	59.80%	70.40%	–
CCOC(=O)CC(C)=NNC(=O)c1cn2c3c(c(N4CCN(C)CC4)c(F)cc3c1=O)OCC2C (centres unmarked) [Compound 5, Ethyl 3-(2-(9-fluoro-3-methyl-10-(4-methylpiperazin-1-yl)-7-oxo-2,3-dihydro-7H-[1,4]oxazino[2,3,4-ij]quinoline-6-carbonyl)hydrazineylidene)butanoate]	3.77 ± 0.17 µM	83.73%	40.6 ± 2.28 µM	1.4 ± 0.06 µM	0.96 ± 0.06 µM	19.7 ± 1.03 µM	–	38.11%	32.21%	9.54%	22.67%	5.9%	38.49%	22.42%	39.09%	375.8 ± 16.6 pg/mL	30.4 ± 1.66 µM	78.30%	80.29%	–
